Experimental data: patent publication US20110070232A1, “Combination Therapy with an Antitumor Alkaloid” (Pharma Mar, S.A., priority 2008, published 2011)
Like-named read-outs stand apart in the source and are kept apart here.

How the values were obtained:
Assay type in all cases: in vivo, mice
NCI-H460 tumors = settings: alone or with PM00104 0.9 mg/kg/day IV
Procedure: Female athymic nude mice (Harlan Sprague Dawley, Madison, Wis.) were utilized for all experiments. Animals were housed in ventilated rack caging with food and water ad libitum. The mice were acclimated for at least 5 days prior to tumor implantation.
The tumor model used in this study was NCI-H460 cell line which is a human NSCLC cell line obtained from the ATCC (Manassas, Va.). […] Cells from in vitro passage 7 were implanted SC into study mice using a 1 ml syringe with a 13G trocar: 5×10^6 cells/mouse in 0.2 ml 50% Matrigel/50% RPMI medium of NCI-H460 without serum or antibiotics. Bacterial culture was taken on cells used to implant the study.
Treatments were initiated on DPI 9.
Tumor size measurements were recorded 2-3 times/week from the treatment initiation until the termination of the study.
(§1) Mean, standard deviation and standard error of the mean were determined for tumor volume for all animal groups at all assessments. Student's t test was performed on tumor volumes at each measurement day, including at the end of the study, to determine whether there were any statistically significant differences between combination treatment groups and single monotherapy treatment groups.

MRI-H-254 tumors = test system: MRI-H-254 tumors
Procedure: Female athymic nude mice (Harlan Sprague Dawley, Madison, Wis.) were utilized for all experiments. Animals were housed in ventilated rack caging with food and water ad libitum. The mice were acclimated for at least 5 days prior to tumor implantation with tumor fragments.
Treatments were initiated on DPI 16.
(§2) Tumor size measurements were recorded twice weekly from the treatment initiation until the termination of the study.
as §1

PLC/PRF/5 tumors = test system: PLC/PRF/5 tumors
Procedure: (§3) Female athymic nude mice (Harlan Sprague Dawley, Madison, Wis.) were utilized for all experiments. Animals were housed in ventilated rack caging with food and water ad libitum. The mice were acclimated for at least 5 days prior to tumor implantation with a tumor cell suspension.
The tumor model used in these studies was PLC/PRF/5 cell line, which was obtained from the ATCC (Manassas, Va.).
PLC/PRF/5 were grown in Eagle's minimum essential medium supplemented with 10% FBS and 1% L-glutamine. Each animal was implanted SC on the right flank, using a 13G trochar and 1 mL syringe, with 5×10^6 PLC/PRF/5 cells in a 0.2 mL suspension of 50% Matrigel and 50% serum free MEM medium, without antibiotics. Bacterial cultures were performed on aliquots of the cells prepared for implantation.
Treatments were initiated on DPI 14.
as §2, §1

HepG2 tumors = test system: HepG2 tumors
Procedure: as §3
The tumor model used in these studies was HepG2 cell line, which was obtained from the ATCC (Manassas, Va.).
HepG2 cells were grown in MEM supplemented with 10% FBS, 1.5 g/L sodium bicarbonate, 0.1 mM non-essential amino acids, 1.0 mM sodium pyruvate, and 2 mM L-glutamine. Each animal was implanted SC on the right flank, using a 13G trochar, with 5×10^6 HepG2 cells in a 0.2 mL suspension of 50% Matrigel and 50% serum free medium, without antibiotics. Bacterial cultures were performed on aliquots of the cells prepared for implantation.
Treatments were initiated on DPI 19.
as §2, §1

[1] = day 20, PM00104 0.90, cisplatin 3, irinotecan 10, paclitaxel 12.5 mg/kg/day
[2] = day 20, PM00104 0.90, cisplatin 5, irinotecan 18, paclitaxel 25 mg/kg/day
[3] = day 23, PM00104 0.90, cisplatin 3, irinotecan 10, paclitaxel 12.5 mg/kg/day
[4] = day 26, PM00104 0.90, cisplatin 3, irinotecan 10, paclitaxel 12.5 mg/kg/day
[5] = day 29, PM00104 0.90, cisplatin 3, irinotecan 10, paclitaxel 12.5 mg/kg/day
[6] = day 40, PM00104 0.90, cisplatin 3, irinotecan 10, paclitaxel 12.5 mg/kg/day
[7] = day 40, PM00104 0.90, cisplatin 5, irinotecan 18, paclitaxel 25 mg/kg/day
[8] = day 48, PM00104 0.90, cisplatin 3, irinotecan 10, paclitaxel 12.5 mg/kg/day
[9] = day 48, PM00104 0.90, cisplatin 5, irinotecan 18, paclitaxel 25 mg/kg/day
[10] = day 14, PM00104 0.90, sorafenib 60 mg/kg/day
[11] = day 22, PM00104 0.90, sorafenib 30 mg/kg/day
[12] = day 22, PM00104 0.90, sorafenib 60 mg/kg/day
[13] = day 25, PM00104 0.90, sorafenib 60 mg/kg/day
[14] = day 28, PM00104 0.90, sorafenib 60 mg/kg/day
[15] = day 32, PM00104 0.90, sorafenib 60 mg/kg/day
[16] = day 39, PM00104 0.90, sorafenib 60 mg/kg/day
[17] = day 42, PM00104 0.90, sorafenib 60 mg/kg/day
[18] = day 19, PM00104 0.90, sorafenib 30 mg/kg/day
[19] = day 26, PM00104 0.90, sorafenib 60 mg/kg/day
[20] = day 30, PM00104 0.90, sorafenib 30 mg/kg/day
[21] = day 30, PM00104 0.90, sorafenib 60 mg/kg/day
[22] = day 33, PM00104 0.90, sorafenib 60 mg/kg/day

## CO[C@H]1C[C@@H]2CC[C@@H](C)[C@@](O)(O2)C(=O)C(=O)N2CCCC[C@H]2C(=O)O[C@H]([C@H](C)C[C@@H]2CC[C@@H](OC(=O)C(C)(CO)CO)[C@H](OC)C2)CC(=O)[C@H](C)/C=C(\C)[C@@H](O)[C@@H](OC)C(=O)[C@H](C)C[C@H](C)/C=C/C=C/C=C/1C [temsirolimus]
NCI-H460 tumors; Temsirolimus 10 mg/kg/day IP
  % T/C on day 9: 101.9%
  % T/C on day 13: 60.4%
  % T/C on day 16: 55.5%
  % T/C on day 21: 40.5%
  % T/C on day 24: 18.9%
  % T/C on day 30: 22.0%
  % T/C on day 38: 52.0%
  % T/C on day 41: 66.4%
NCI-H460 tumors; Temsirolimus 20 mg/kg/day IP
  % T/C on day 9: 104.4%
  % T/C on day 13: 66.4%
  % T/C on day 16: 68.4%
  % T/C on day 21: 46.8%
  % T/C on day 24: 35.9%
  % T/C on day 27: 15.9%
  % T/C on day 30: 23.9%
  % T/C on day 38: 61.2%
  % T/C on day 41: 65.2%

## CCc1c2c(nc3ccc(OC(=O)N4CCC(N5CCCCC5)CC4)cc13)-c1cc3c(c(=O)n1C2)COC(=O)[C@]3(O)CC [irinotecan]
MRI-H-254 tumors; day 16, PM00104 0.90, cisplatin 3, irinotecan 10, paclitaxel 12.5 mg/kg/day
  % Inhibition: 1.6%
MRI-H-254 tumors; day 16, PM00104 0.90, cisplatin 5, irinotecan 18, paclitaxel 25 mg/kg/day
  % Inhibition: 1.9%
MRI-H-254 tumors; [1]
  % Inhibition: 7.5%
  % T/C: 92.5%
MRI-H-254 tumors; [2]
  % Inhibition: 7.9%
  % T/C: 92.1%
MRI-H-254 tumors; [3]
  % Inhibition: 7.0%
  % T/C: 93.0%
MRI-H-254 tumors; day 23, PM00104 0.90, cisplatin 5, irinotecan 18, paclitaxel 25 mg/kg/day
  % Inhibition: 16.0%
MRI-H-254 tumors; [4]
  % Inhibition: 9.8%
  % T/C: 90.2%
MRI-H-254 tumors; day 26, PM00104 0.90, cisplatin 5, irinotecan 18, paclitaxel 25 mg/kg/day
  % Inhibition: 25.0%
MRI-H-254 tumors; [5]
  % Inhibition: 11.4%
  % T/C: 88.6%
MRI-H-254 tumors; [6]
  % Inhibition: 50.8%
  % T/C: 49.2%
MRI-H-254 tumors; [7]
  % Inhibition: 59.9%
  % T/C: 40.1%
MRI-H-254 tumors; [8]
  % Inhibition: 58.6%
  % T/C: 41.4%
MRI-H-254 tumors; [9]
  % Inhibition: 65.1%
  % T/C: 34.9%

## CNC(=O)c1cc(Oc2ccc(NC(=O)Nc3ccc(Cl)c(C(F)(F)F)c3)cc2)ccn1 [sorafenib]
PLC/PRF/5 tumors; day 14, PM00104 0.90, sorafenib 30 mg/kg/day
  % T/C: 99.5%
PLC/PRF/5 tumors; [10]
  % Inhibition: 1.5%
  % T/C: 98.5%
PLC/PRF/5 tumors; day 18, PM00104 0.90, sorafenib 60 mg/kg/day
  % Inhibition: 26.4%
PLC/PRF/5 tumors; [11]
  % T/C: 79.5%
PLC/PRF/5 tumors; [12]
  % Inhibition: 47.8%
  % T/C: 52.2%
PLC/PRF/5 tumors; [13]
  % Inhibition: 46.6%
  % T/C: 53.4%
PLC/PRF/5 tumors; [14]
  % Inhibition: 56.6%
  % T/C: 43.4%
PLC/PRF/5 tumors; [15]
  % Inhibition: 57.1%
  % T/C: 42.9%
PLC/PRF/5 tumors; day 35, PM00104 0.90, sorafenib 30 mg/kg/day
  % T/C: 54.7%
PLC/PRF/5 tumors; day 35, PM00104 0.90, sorafenib 60 mg/kg/day
  % T/C: 36.5%
PLC/PRF/5 tumors; day 39, PM00104 0.90, sorafenib 30 mg/kg/day
  % T/C: 59.3%
PLC/PRF/5 tumors; [16]
  % Inhibition: 49.8%
  % T/C: 50.2%
PLC/PRF/5 tumors; [17]
  % Inhibition: 44.6%
  % T/C: 55.4%
HepG2 tumors; day 19, PM00104 0.60, sorafenib 30 mg/kg/day
  % Inhibition: −1.4%
HepG2 tumors; day 19, PM00104 0.60, sorafenib 60 mg/kg/day
  % Inhibition: 11.2%
HepG2 tumors; [18]
  % Inhibition: −1.4%
  % T/C: 101.4%
HepG2 tumors; day 19, PM00104 0.90, sorafenib 60 mg/kg/day
  % Inhibition: 11.2%
HepG2 tumors; day 22, PM00104 0.60, sorafenib 30 mg/kg/day
  % Inhibition: −23.5%
HepG2 tumors; day 22, PM00104 0.60, sorafenib 60 mg/kg/day
  % Inhibition: 21.3%
HepG2 tumors; [11]
  % Inhibition: −23.5%
  % T/C: 123.5%
HepG2 tumors; [12]
  % Inhibition: 21.3%
  % T/C: 78.7%
HepG2 tumors; day 26, PM00104 0.60, sorafenib 30 mg/kg/day
  % Inhibition: 8.7%
HepG2 tumors; day 26, PM00104 0.60, sorafenib 60 mg/kg/day
  % Inhibition: 39.9%
HepG2 tumors; day 26, PM00104 0.90, sorafenib 30 mg/kg/day
  % Inhibition: 8.7%
HepG2 tumors; [19]
  % Inhibition: 39.9%
  % T/C: 60.1%
HepG2 tumors; day 30, PM00104 0.60, sorafenib 30 mg/kg/day
  % Inhibition: −0.9%
HepG2 tumors; day 30, PM00104 0.60, sorafenib 60 mg/kg/day
  % Inhibition: 38.2%
HepG2 tumors; [20]
  % Inhibition: −0.9%
  % T/C: 100.9%
HepG2 tumors; [21]
  % Inhibition: 38.2%
  % T/C: 61.8%
HepG2 tumors; day 33, PM00104 0.60, sorafenib 30 mg/kg/day
  % Inhibition: 9.6%
HepG2 tumors; day 33, PM00104 0.60, sorafenib 60 mg/kg/day
  % Inhibition: 33.8%
HepG2 tumors; day 33, PM00104 0.90, sorafenib 30 mg/kg/day
  % Inhibition: 9.6%
HepG2 tumors; [22]
  % Inhibition: 33.8%
  % T/C: 66.2%
